Experimental data taken from patent US12403137B2, “Compounds and methods of use” (Tango Therapeutics, Inc., priority 2019, dated 2025).

Key:
PRMT5 [1] = target: T1, PRMT5 (Homo sapiens, UniProt O14744); experiment: PRMT5 inhibition assay with SAM as cofactor; assay type: biochemical; conditions: against PRMT5 in the presence of SAM as cofactor
T1 construct: purchased Viva (custom protein)
Text: (§1) The Ki values can be calculated from the IC50 values as described in the Examples section. As detailed in the Examples section, for the assay performed in the presence of SAM, IC50=Ki×1.5 (Ki=IC50/1.5). For the assay performed in the presence of MTA, IC50=Ki×13.5 (Ki=IC50/13.5). Column 6 indicates the ratio between the Ki of compounds in the presence of SAM and the Ki of compounds in the presence of MTA

PRMT5 [2] = target: T1, PRMT5; experiment: PRMT5 inhibition assay with no cofactor; assay type: biochemical; conditions: against PRMT5 with no cofactor; read-out: No Co-factor IC50
PRMT5 [3] = target: T1, PRMT5; experiment: PRMT5 inhibition assay with MTA as cofactor; assay type: biochemical; conditions: for IC50: against PRMT5 with MTA as cofactor; for SAM/MTA Ratio: ratio of Ki in the presence of SAM to Ki in the presence of MTA, Ki=IC50/1.5 (SAM), Ki=IC50/13.5 (MTA)
Text: as §1

[4] = test system: HAP1 MTAP-deleted cell line; experiment: SDMA in-cell western assay, HAP1 MTAP-deleted; assay type: cell-based; conditions: for IC50: Homo sapiens, HAP1 MTAP-deleted (MTAP-null) cell line; for MTAP Intact/Deleted Ratio: IC50 ratio HAP1 MTAP-intact / HAP1 MTAP-deleted, >=3 fold considered MTAP-selective
Summary of the method: (§2)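 IC50 values come from an SDMA in-cell western run in isogenic HAP1 cells, either MTAP-null or expressing endogenous MTAP. The intact-to-deleted IC50 ratio is used to score MTAP selectivity.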

[5] = test system: HAP1 MTAP-intact cell line; experiment: SDMA in-cell western assay, HAP1 MTAP-intact; assay type: cell-based; conditions: Homo sapiens
Summary of the method: as §2

T1 sequence (O14744 whole entry): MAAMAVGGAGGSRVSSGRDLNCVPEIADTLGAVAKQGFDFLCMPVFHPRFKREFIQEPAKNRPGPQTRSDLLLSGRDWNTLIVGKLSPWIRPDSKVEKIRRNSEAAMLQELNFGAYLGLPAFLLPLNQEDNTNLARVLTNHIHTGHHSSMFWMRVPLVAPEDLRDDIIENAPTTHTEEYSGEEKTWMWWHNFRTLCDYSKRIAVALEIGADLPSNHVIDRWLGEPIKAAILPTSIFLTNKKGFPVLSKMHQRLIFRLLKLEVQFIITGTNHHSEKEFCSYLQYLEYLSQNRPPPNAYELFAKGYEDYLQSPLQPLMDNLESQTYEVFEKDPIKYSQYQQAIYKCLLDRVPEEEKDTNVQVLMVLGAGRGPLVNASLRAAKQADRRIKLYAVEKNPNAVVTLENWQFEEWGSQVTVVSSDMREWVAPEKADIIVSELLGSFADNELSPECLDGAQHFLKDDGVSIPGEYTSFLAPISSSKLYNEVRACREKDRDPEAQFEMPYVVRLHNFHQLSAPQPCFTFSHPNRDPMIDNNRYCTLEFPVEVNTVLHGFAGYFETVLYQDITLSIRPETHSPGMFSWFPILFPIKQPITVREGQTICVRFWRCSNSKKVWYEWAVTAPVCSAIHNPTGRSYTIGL
T1 sequence (Q9BQA1 whole entry partner): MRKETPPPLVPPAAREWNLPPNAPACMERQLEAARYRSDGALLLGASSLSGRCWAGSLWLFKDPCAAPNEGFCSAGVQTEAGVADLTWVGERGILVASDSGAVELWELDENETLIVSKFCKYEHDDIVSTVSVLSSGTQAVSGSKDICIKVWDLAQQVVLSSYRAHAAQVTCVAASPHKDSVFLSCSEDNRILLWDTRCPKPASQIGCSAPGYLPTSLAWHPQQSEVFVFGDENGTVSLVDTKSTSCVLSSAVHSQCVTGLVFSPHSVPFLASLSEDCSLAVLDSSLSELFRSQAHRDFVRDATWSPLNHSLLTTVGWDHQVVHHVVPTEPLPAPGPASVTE

| IC50 (PRMT5 [1]) | IC50 (PRMT5 [2]) | IC50 (PRMT5 [3]) | IC50 [4] | IC50 [5] | SMILES | SAM/MTA Ratio (PRMT5 [3]) | MTAP Intact/Deleted Ratio [4] |
| --- | --- | --- | --- | --- | --- | --- | --- |
| 50 to 500 nM | 50 to 500 nM | < 50 nM | < 1000 nM | 1000 to 10000 nM | Cc1ncoc1COc1ccc2c(c1)CN[C@H]([C@H](O)CNC(=O)c1cc(NC3CCC3)nc(N3CCCCC3)n1)C2 [Compound 49, 6-(cyclobutylamino)-N-[(2R)-2-hydroxy-2-[(3S)-7-[(4-methyloxazol-5-yl)methoxy]-1,2,3,4-tetrahydroisoquinolin-3-yl]ethyl]-2-(1-piperidyl)pyrimidine-4-carboxamide] | A (a Ki ratio greater than or equal to 10 fold between the Ki in the presence of SAM and the Ki in the presence of MTA) | A* (an IC50 ratio greater than or equal to 10 fold between the IC50 in the HAP1 MTAP-intact cell line and the HAP1 MTAP-deleted cell line) |
| 50 to 500 nM | 50 to 500 nM | < 50 nM | < 1000 nM | < 1000 nM | CC(=O)N1CCC(Nc2cc(C(=O)NC[C@@H](O)[C@@H]3Cc4ccc(OCc5ocnc5C)cc4CN3)nc(N3CCCCC3)n2)CC1 [Compound 50, 6-[(1-acetyl-4-piperidyl)amino]-N-[(2R)-2-hydroxy-2-[(3S)-7-[(4-methyloxazol-5-yl)methoxy]-1,2,3,4-tetrahydroisoquinolin-3-yl]ethyl]-2-(1-piperidyl)pyrimidine-4-carboxamide] | A (a Ki ratio greater than or equal to 10 fold between the Ki in the presence of SAM and the Ki in the presence of MTA) | A* (an IC50 ratio greater than or equal to 10 fold between the IC50 in the HAP1 MTAP-intact cell line and the HAP1 MTAP-deleted cell line) |
| 50 to 500 nM | 50 to 500 nM | < 50 nM | < 1000 nM | < 1000 nM | Cc1ncoc1COc1ccc2c(c1)CN[C@H]([C@H](O)CNC(=O)c1cc(NC3CCC3)nc(N3CCN(C)CC3)c1)C2 [Compound 52, 2-(cyclobutylamino)-N-[(2R)-2-hydroxy-2-[(3S)-7-[(4-methyloxazol-5-yl)methoxy]-1,2,3,4-tetrahydroisoquinolin-3-yl]ethyl]-6-(4-methylpiperazin-1-yl)pyridine-4-carboxamide] | A (a Ki ratio greater than or equal to 10 fold between the Ki in the presence of SAM and the Ki in the presence of MTA) | A* (an IC50 ratio greater than or equal to 10 fold between the IC50 in the HAP1 MTAP-intact cell line and the HAP1 MTAP-deleted cell line) |
| 50 to 500 nM | 50 to 500 nM | < 50 nM | < 1000 nM | 1000 to 10000 nM | CC(=O)N1CC(Nc2cc(C(=O)NC[C@@H](O)[C@@H]3Cc4ccc(OCc5ocnc5C)cc4CN3)nc(N3CC4CCC3C4)n2)C1 (stereo partly drawn) [Compound 53, 6-[(1-acetylazetidin-3-yl)amino]-2-(3-azabicyclo[2.2.1]heptan-3-yl)-N-[(2R)-2-hydroxy-2-[(3S)-7-[(4-methyloxazol-5-yl)methoxy]-1,2,3,4-tetrahydroisoquinolin-3-yl]ethyl]pyrimidine-4-carboxamide] | A (a Ki ratio greater than or equal to 10 fold between the Ki in the presence of SAM and the Ki in the presence of MTA) | A* (an IC50 ratio greater than or equal to 10 fold between the IC50 in the HAP1 MTAP-intact cell line and the HAP1 MTAP-deleted cell line) |
| 50 to 500 nM | 50 to 500 nM | < 50 nM | 1000 to 10000 nM | ≥ 10000 nM | CC(=O)N1CCC(Nc2cc(C(=O)NC[C@@H](O)[C@@H]3Cc4ccc(OCc5ocnc5C)cc4CN3)cc(N3CCN(C)CC3)n2)CC1 [Compound 54, 2-[(1-acetyl-4-piperidyl)amino]-N-[(2R)-2-hydroxy-2-[(3S)-7-[(4-methyloxazol-5-yl)methoxy]-1,2,3,4-tetrahydroisoquinolin-3-yl]ethyl]-6-(4-methylpiperazin-1-yl)pyridine-4-carboxamide] | A (a Ki ratio greater than or equal to 10 fold between the Ki in the presence of SAM and the Ki in the presence of MTA) | C* (an IC50 ratio of less than 3 fold between the IC50 in the HAP1 MTAP-intact cell line and the HAP1 MTAP-deleted cell line) |
| 50 to 500 nM | 50 to 500 nM | < 50 nM | < 1000 nM | < 1000 nM | CCN1CCN(c2cc(C(=O)NC[C@@H](O)[C@@H]3Cc4ccc(OCc5ocnc5C)cc4CN3)cc(NC3CCC3)n2)CC1 [Compound 55, 2-(cyclobutylamino)-6-(4-ethylpiperazin-1-yl)-N-[(2R)-2-hydroxy-2-[(3S)-7-[(4-methyloxazol-5-yl)methoxy]-1,2,3,4-tetrahydroisoquinolin-3-yl]ethyl]pyridine-4-carboxamide] | A (a Ki ratio greater than or equal to 10 fold between the Ki in the presence of SAM and the Ki in the presence of MTA) | B* (an IC50 ratio greater than or equal to 3 fold but lower than 10 fold between the IC50 in the HAP1 MTAP-intact cell line and the HAP1 MTAP-deleted cell line) |
| 50 to 500 nM | 50 to 500 nM | < 50 nM | < 1000 nM | 1000 to 10000 nM | CC(=O)N1CC(Nc2cc(C(=O)NC[C@@H](O)[C@@H]3Cc4ccc(OCc5ocnc5C)cc4CN3)nc(N3CC4CCC(C4)C3)n2)C1 [Compound 56, 6-[(1-acetylazetidin-3-yl)amino]-2-(3-azabicyclo[3.2.1]octan-3-yl)-N-[(2R)-2-hydroxy-2-[(3S)-7-[(4-methyloxazol-5-yl)methoxy]-1,2,3,4-tetrahydroisoquinolin-3-yl]ethyl]pyrimidine-4-carboxamide] | A (a Ki ratio greater than or equal to 10 fold between the Ki in the presence of SAM and the Ki in the presence of MTA) | A* (an IC50 ratio greater than or equal to 10 fold between the IC50 in the HAP1 MTAP-intact cell line and the HAP1 MTAP-deleted cell line) |
| 50 to 500 nM | 50 to 500 nM | 50 to 500 nM | < 1000 nM | 1000 to 10000 nM | Cc1ncoc1COc1ccc2c(c1)CN[C@H]([C@H](O)CNC(=O)c1cc(NC3CC4(CCC4)C3)nc(N3CCCCC3)n1)C2 [Compound 57, N-[(2R)-2-hydroxy-2-[(3S)-7-[(4-methyloxazol-5-yl)methoxy]-1,2,3,4-tetrahydroisoquinolin-3-yl]ethyl]-2-(1-piperidyl)-6-(spiro[3.3]heptan-2-ylamino)pyrimidine-4-carboxamide] | A (a Ki ratio greater than or equal to 10 fold between the Ki in the presence of SAM and the Ki in the presence of MTA) | A* (an IC50 ratio greater than or equal to 10 fold between the IC50 in the HAP1 MTAP-intact cell line and the HAP1 MTAP-deleted cell line) |
| 50 to 500 nM | 50 to 500 nM | < 50 nM | < 1000 nM | 1000 to 10000 nM | Cc1ncoc1COc1ccc2c(c1)CN[C@H]([C@H](O)CNC(=O)c1cc(NC3CCC3)cc(N3CCCCC3)c1)C2 [Compound 58, 3-(cyclobutylamino)-N-[(2R)-2-hydroxy-2-[(3S)-7-[(4-methyloxazol-5-yl)methoxy]-1,2,3,4-tetrahydroisoquinolin-3-yl]ethyl]-5-(1-piperidyl)benzamide] | A (a Ki ratio greater than or equal to 10 fold between the Ki in the presence of SAM and the Ki in the presence of MTA) | A* (an IC50 ratio greater than or equal to 10 fold between the IC50 in the HAP1 MTAP-intact cell line and the HAP1 MTAP-deleted cell line) |
| 50 to 500 nM | 50 to 500 nM | 50 to 500 nM | ≥ 10000 nM | ≥ 10000 nM | CC(=O)N1CC(Nc2cc(C(=O)NC[C@@H](O)[C@@H]3Cc4ccc(OCc5ocnc5C)cc4CN3)cc(N3CCCCC3)c2)C1 [Compound 59, 3-[(1-acetylazetidin-3-yl)amino]-N-[(2R)-2-hydroxy-2-[(3S)-7-[(4-methyloxazol-5-yl)methoxy]-1,2,3,4-tetrahydroisoquinolin-3-yl]ethyl]-5-(1-piperidyl)benzamide] | A (a Ki ratio greater than or equal to 10 fold between the Ki in the presence of SAM and the Ki in the presence of MTA) | C* (an IC50 ratio of less than 3 fold between the IC50 in the HAP1 MTAP-intact cell line and the HAP1 MTAP-deleted cell line) |

| SMILES | IC50 (PRMT5 [1]) | IC50 (PRMT5 [2]) | IC50 (PRMT5 [3]) | IC50 [4] | IC50 [5] | SAM/MTA Ratio (PRMT5 [3]) | MTAP Intact/Deleted Ratio [4] |
| --- | --- | --- | --- | --- | --- | --- | --- |
| CC(=O)N1CC(Nc2cc(C(=O)NC[C@@H](O)[C@@H]3Cc4ccc(OCc5ocnc5C)cc4CN3)nc(N3CC4CC(C4)C3)n2)C1 [Compound 51, 6-[(1-acetylazetidin-3-yl)amino]-2-(3-azabicyclo[3.1.1]heptan-3-yl)-N-[(2R)-2-hydroxy-2-[(3S)-7-[(4-methyloxazol-5-yl)methoxy]-1,2,3,4-tetrahydroisoquinolin-3-yl]ethyl]pyrimidine-4-carboxamide] | 50 to 500 nM | 50 to 500 nM | < 50 nM | < 1000 nM | 1000 to 10000 nM | A (a Ki ratio greater than or equal to 10 fold between the Ki in the presence of SAM and the Ki in the presence of MTA) | A* (an IC50 ratio greater than or equal to 10 fold between the IC50 in the HAP1 MTAP-intact cell line and the HAP1 MTAP-deleted cell line) |
